Experimental data: USRE38352E1, “Polymerase chain reaction assays for monitoring antiviral therapy and making therapeutic decisions in the treatment of acquired immunodeficiency syndrome” (priority 1992, dated 2003)
Where “and” joins values, the source holds several entries; their conditions need not be identical. Equal values may be shown once.

Experiments:
plasma HIV RNA = test: Plasma HIV RNA copy number by cDNA gene amplification (PCR) and enzyme-linked affinity assay; type: in vivo, human (HIV antibody-positive subjects); conditions: individual patient
Source text: After informed consent was obtained, whole blood samples were collected by venipuncture in the presence of acid-citrate-dextrose as an anticoagulant. A single plasma sample was collected from 39 HIV antibody-positive subjects who were not receiving antiretroviral therapy at the time of collection and from 33 HIV antibody-positive subjects who were currently on and had received AZT for a minimum of 3 mo.
(§1) Two plasma samples were collected from an additional 27 subjects before and 1 month after initiation of dideoxynucleoside therapy. 18 of these subjects received 500 mg/d of AZT orally. Seven subjects received a combination of zidovudine (150-600 mg/d) and 2′,3′-dideoxyinosine (ddI) (134-500 mg/d). Two patients received 500 mg/d of ddI alone (see Table I for individual subject characteristics). Finally, nine of these subjects had two plasma samples taken 1-3 wk. before initiating antiretroviral therapy and two plasma samples taken 1 and 2 mo. after commencing therapy. Plasma was separated within 4 h. by centrifugation at 500 g for 10 min. A second centrifugation was performed on the plasma at 500 g for 30 min. to remove any cellular material. 200 μl of plasma was then mixed with 200 μl of a solution containing 5M guanidinium thiocyanate, vortexed briefly, and stored at −70° C. until further use. All samples were assayed within 3 mo. of collection. To decrease variance, all specimens to be compared from the same subject were run in the same assay.
RNA was extracted from plasma by the method described in Chomczynski et al., 1987, Ann. Biochem. 162:156-159. Briefly, 200 μl of clarified plasma to which 200 μl of 5M guanidinium thiocyanate had previously been added was extracted with phenol/chloroform and precipitated with isopropanol. The resulting pellet was then washed in 75% ethanol, dried, and brought up in diethylpyrocarbonate treated, glass distilled water.
HIV RNA was transcribed to cDNA using Moloney murine leukemia virus reverse transcriptase (Bethesda Research Laboratories, Gaithersburg, Md.) by the method described in Kawasaki, 1990, “In PCR Protocols: A Guide to Methods and Applications” pp. 21-27, M. A. Innis, D. H. Gelfand, J. J. Sninsky, and T. J. White, eds. Academic Press, Berkeley, Calif. Oligomers used for amplification included SK38, SK39, and SK19 (Kellog et al., 1990, “In PCR Protocols: A Guide to Methods and Applications,” pp. 337-348, M. A. Innis, D. H. Gelfand, J. J. Sninsky, and T. J. White, eds. Academic Press, Berkeley, Calif.). Biotinylation of SK38 and horseradish peroxidase (HRP) labeling of probe SK19 were prepared as described in Levenson et al., 1990, “In PCR Protocols: A Guide to Methods and Applications,” pp. 99-112M. S. Innis, D. H. Gelfand, J. J. Sninsky, and T. J. White, eds. Academic Press, Berkeley, Calif. Amplification of HIV cDNA was carried out as follows: to a 100-μl reaction mixture was added the cDNA, 50 pmol of primers SK38 and SDK39, […] of each dNTP, 10 mM Tris (pH 8.3), 2.5 mM MgCl2, 50 mM KCl, and 2.5 U of recombiTaq DNA polymerase (Perkin-Elmer Cetus, Norwalk, Conn.). The mixture was then overlaid with 50 μl of mineral oil. Tubes were placed in a DNA thermal cycler (Perkin-Elmer Cetus) for 30 cycles of amplification with the following program: 95° C./30 s, 55° C./30s, and 72° C./60 s for denaturation, annealing, and extension, respectively. Negative and positive controls which included both high and low copy number HIV RNA and DNA were added at each step.
To detect and quantitate PCR product, 96-well microplates (Maxisorp; Nunc, Naperville, Ill.) were coated with 100 μl of a 0.1 mg/ml solution of avidin (Sigma Chemical Co., St. Louis, Mo.) in 50 mM Na2CO3 (pH 9.6) overnight at room temperature. Wells were then washed twice with PBS. Wells were then filled with 300 μl of a blocking solution containing 5X Denhardt's solution, 1% gelatin (Sigma), […] sheared herring sperm DNA (Promega Biotec, Madison, Wis.) at least overnight at 4° C. […]

CD4 cells = tested on: CD4 cells; set-up: species or system human (HIV antibody-positive subjects); conditions: human, in vivo
Procedure: as §1
Sample optical density was converted to copy number and analyses performed on samples expressed as RNA copy number/200 μl of plasma. […] A t test of paired samples was used to analyze paired plasma data and CD4 counts from subjects pre- and post-therapy. All t tests were two tailed. […]

serum HIV RNA = test: Serum virus burden by quantitative PCR in patients receiving didanosine monotherapy; type: in vivo, human (patients infected with HIV)
Source text: Duplicate serum samples were ultracentrifuged, and the pellet was purified by phenol-chloroform extraction and alcohol precipitation, as previously described for plasma (Winters et al., 1993, J. Clin. Microbiol. 31:2960-2966). Polymerase chain reaction quantification of viral RNA was done using reverse-transcriptase PCR, and the PCR product was detected using a nonisotopic enzyme-hybridization assay, as previously described (Winters et al., 1992, PCR Methods Appl. 1:257-262). Results were then expressed as HIV RNA copies per milliliter of serum.
(§2) A two-sided t-test was used to compare changes in virus burden between patient groups. A standard one-sample, two-sided Wilcoxon test was used to compare differences in the change of slopes of CD4^+ T cells (slopes of CD4^+ cells before the mutation compared with slopes of CD4^+ cells after the mutation) for patients developing a mutation at codon 74. The slope difference test analysis pertained to the slope difference statistic, defined to be the difference in fitted slope of the CD4^+ counts after compared with before the mutation at codon 74. Thirty-four of 38 patients in the mutation group had sufficient data to allow computation of the slope difference statistic.

CD4+ T cells = test: CD4+ T-cell slope changes before/after codon 74 mutation on didanosine; type: in vivo, human (patients infected with HIV); conditions: 34 of 38 patients who developed the mutation; CI −2.68 to −0.71
Source text: as §2
We compared the slope difference statistic values for the 34 mutants with the corresponding values from the wild-type group in order to see if they were more negative in the mutant group. […]

[1] = tested on: HIV with codon 74 mutation in reverse transcriptase; conditions: codon 74 mutation in an HIV construct (St. Clair et al.); cited from earlier work

Compound: OC[C@@H]1CC[C@H](n2cnc3c(O)ncnc32)O1 [ddI, 2′,3′-dideoxyinosine]
- Post HIV RNA (plasma HIV RNA; 1 mo after initiation, ddI 500 mg/d): 0 copy number/200 μl of plasma
- Pre HIV RNA (plasma HIV RNA; before initiation of therapy): 966 copy number/200 μl of plasma and 3944 copy number/200 μl of plasma
- Post CD4 (CD4 cells): 328/310 and 222/370
- Pre CD4 (CD4 cells): 328/310 and 222/370
- Fold Difference in virus burden, mutant vs wild type (serum HIV RNA; Week 0, listed as DIDANOSINE): 1.66 fold
- Fold Difference in virus burden, mutant vs wild type (serum HIV RNA; Week 0, listed as didanosine): 1.6 fold
- Fold Difference in virus burden, mutant vs wild type (serum HIV RNA; Week 24, listed as DIDANOSINE): 2.71 fold
- Fold Difference in virus burden, mutant vs wild type (serum HIV RNA; Week 24, listed as didanosine): 2.7 fold
- Week 0, mean HIV RNA copies/mL serum (serum HIV RNA; patients whose codon 74 genotypes became mutant, initiation of didanosine): 83 000 copies/mL serum
- Week 0, mean HIV RNA copies/mL serum (serum HIV RNA; patients whose codon 74 genotypes remained wild type, initiation of didanosine, listed as DIDANOSINE): 50100 copies/mL serum
- Week 0, mean HIV RNA copies/mL serum (serum HIV RNA; patients whose codon 74 genotypes remained wild type, initiation of didanosine, listed as didanosine): 50 100 copies/mL serum
- Fold increase in virus burden between week 0 to 24 (serum HIV RNA; remained wild type at codon 74): 1.65 fold
- Week 24, mean HIV RNA copies/mL serum (serum HIV RNA; remained wild type at codon 74): 82400 copies/mL serum
- mean serum virus burden (serum HIV RNA; subgroup codon 74 mutation with codon 215 mutation, after 24 weeks of didanosine): about 275 400 HIV RNA copies/mL serum
- Week 0, mean HIV RNA copies/mL serum (serum HIV RNA; {}): 83000 copies/mL serum
- Week 24, mean HIV RNA copies/mL serum (serum HIV RNA; {}): 225000 copies/mL serum
- median greater decline of CD4+ T-cell slope after vs before codon 74 mutation (CD4+ T cells): −1.54 CD4^+ cells/wk
- decrease in susceptibility to didanosine [1]: eightfold
